We go through eleven compounds from ChEMBL document CHEMBL1131327, “Selective Pneumocystis carinii dihydrofolate reductase inhibitors: design, synthesis, and biological evaluation of new 2,4-diamino-5-substituted-furo[2,3-d]pyrimidines” (J Med Chem, 1998).

The target in assay [1] is T1, Bifunctional dihydrofolate reductase-thymidylate synthase (Toxoplasma gondii, UniProt Q07422).
T1 sequence (Q07422 whole entry): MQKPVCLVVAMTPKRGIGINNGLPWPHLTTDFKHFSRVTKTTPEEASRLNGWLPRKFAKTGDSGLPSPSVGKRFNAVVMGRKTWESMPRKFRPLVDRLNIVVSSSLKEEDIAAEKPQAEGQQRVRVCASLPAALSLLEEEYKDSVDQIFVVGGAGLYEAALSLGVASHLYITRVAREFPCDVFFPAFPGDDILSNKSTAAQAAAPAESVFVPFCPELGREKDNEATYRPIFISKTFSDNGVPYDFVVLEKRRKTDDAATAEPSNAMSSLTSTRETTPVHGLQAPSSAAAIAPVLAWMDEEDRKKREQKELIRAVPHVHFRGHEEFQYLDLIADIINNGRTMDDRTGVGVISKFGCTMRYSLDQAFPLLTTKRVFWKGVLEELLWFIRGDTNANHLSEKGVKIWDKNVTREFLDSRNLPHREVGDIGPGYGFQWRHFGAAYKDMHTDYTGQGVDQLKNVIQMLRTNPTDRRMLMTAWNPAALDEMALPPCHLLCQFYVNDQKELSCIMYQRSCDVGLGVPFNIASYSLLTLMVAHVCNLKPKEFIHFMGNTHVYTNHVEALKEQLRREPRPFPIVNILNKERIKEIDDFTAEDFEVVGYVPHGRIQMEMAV
Description: Inhibitory activity against dihydrofolate reductase from Toxoplasma gondii

The target of assay [2] is T2, Dihydrofolate reductase (Pneumocystis carinii, UniProt P16184).
T2 sequence (P16184 whole entry): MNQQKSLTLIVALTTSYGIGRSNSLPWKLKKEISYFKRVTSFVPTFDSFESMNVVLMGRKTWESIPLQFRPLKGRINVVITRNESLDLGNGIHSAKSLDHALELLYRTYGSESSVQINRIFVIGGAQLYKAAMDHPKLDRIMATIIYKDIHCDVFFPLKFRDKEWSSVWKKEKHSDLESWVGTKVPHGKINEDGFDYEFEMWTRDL
Description: Inhibitory activity against dihydrofolate reductase from pneumocystis carinii

For assay [3], the target named is T3, Dihydrofolate reductase (Rattus norvegicus, UniProt Q920D2).
T3 sequence (Q920D2 whole entry): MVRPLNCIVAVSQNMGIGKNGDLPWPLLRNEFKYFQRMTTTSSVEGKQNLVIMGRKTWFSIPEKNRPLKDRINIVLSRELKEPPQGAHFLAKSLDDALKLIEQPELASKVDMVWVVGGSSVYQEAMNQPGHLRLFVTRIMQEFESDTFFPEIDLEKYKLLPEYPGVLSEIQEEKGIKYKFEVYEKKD
Description: Inhibitory activity against dihydrofolate reductase from rat liver

What is called IC50 is the concentration needed to halve the response being measured. Higher therefore signals weaker potency in that assay. Regarding `Nc1nc(N)c2c(CNc3ccc4ccccc4c3)coc2n1`, the IC50 in assay [1] turned out to be 38 µM; against Dihydrofolate reductase [2], 41 µM; on Dihydrofolate reductase [3], 36.5 µM.

`COc1ccc(OC)c(N(C)Cc2coc3nc(N)nc(N)c23)c1`: the IC50 (in assay [1]; on Dihydrofolate reductase [2]; against Dihydrofolate reductase [3]) was greater than 27 µM each time.

As to `CN(Cc1coc2nc(N)nc(N)c12)c1ccc2ccccc2c1`, the figures for the IC50 at Dihydrofolate reductase [2] and against Dihydrofolate reductase [3] were 14.8 µM and 14.6 µM, respectively.

`CN(Cc1coc2nc(N)nc(N)c12)c1ccc(Cl)c(Cl)c1`: the results for the IC50 (in assay [1]; on Dihydrofolate reductase [2]; at Dihydrofolate reductase [3]) were greater than 27 µM, 44.8 µM and greater than 27 µM, respectively.

`Nc1nc(N)c2c(CNc3ccccc3-c3ccccc3)coc2n1` showed an IC50 against Dihydrofolate reductase [3] of 137 µM.

Turning to `Nc1nc(N)c2c(CNc3ccc(Oc4ccccc4)cc3)coc2n1`, the IC50 in assay [1] was 32.4 µM.

Turning to `COc1cccc(NCc2coc3nc(N)nc(N)c23)c1`, the IC50 (in assay [1]; on Dihydrofolate reductase [2]; against Dihydrofolate reductase [3]) was greater than 31.3 µM throughout.

`CN(Cc1coc2nc(N)nc(N)c12)c1cc(Cl)c(Cl)c(Cl)c1` gave a concentration for half-maximal inhibition (IC50) against Dihydrofolate reductase [2] of 284 µM.

As to `Nc1nc(N)c2c(CNc3ccccc3Oc3ccccc3)coc2n1`, the half-maximal inhibitory concentration (IC50) (in assay [1]; on Dihydrofolate reductase [2]; against Dihydrofolate reductase [3]) was greater than 12 µM each time.

For `Nc1nc(N)c2c(CNc3cc(Cl)ccc3Cl)coc2n1`, in assay [1], the IC50 was greater than 47 µM.

With `Nc1nc(N)c2c(CSc3ccccc3)coc2n1`, the IC50 (in assay [1]; at Dihydrofolate reductase [2]) was greater than 26 µM in each case.
